Assay results published in patent US5763408A, “Amino acid derivatives and application thereof” (Fuji Photo Film Co., Ltd., priority 1992, dated 1998).

Tests used:
B16-BL6 melanoma cells = test: Experimental metastasis test of B16-BL6 melanoma cells in lung; format: in vivo, C57BL/6 female mice; details: day 14
Method: Tumor metastasis inhibition activities of the compounds of the present invention were examined.
A test compound and B16-BL6 melanoma cells, which have strong metastatic property, were mixed in PBS. 0.2 ml of the mixture was intravenously injected to each of C57BL/6 female mice, of which groups each consisted of 5 mice. The mixture injected (0.2 ml) contained 5×10^4 B16-BL6 cells. On the 14th day from the administration, number of melanoma cell colonies was determined and compared with that of control mice, which were administered with PBS.

[1] = tested on: PRP (polyplatelet rich plasma); test: Platelet aggregation inhibition activity (ADP-induced aggregation in PRP); format: cell-based; details: for Platelet aggregation inhibition rate (%): test compound 1 mg/ml in PRP, ADP as inducer, five minutes later
Method: Platelet aggregation inhibition activities of Compounds 1, 2, 3, 4, 5, 6, 7 and 15 were examined.
A test compound was added to PRP (polyplatelet rich plasma, 3×10^8 cells/ml) so that the plasma contained the compound at a concentration of 1 mg/ml and the plasma was added with 10 μl of ADP as an aggregation inducing substance. Five minutes later, aggregation ratio was determined by a chronologic whole blood aggregation ability measuring apparatus to calculate platelet aggregation inhibition ratio.

[2] = tested on: L5178Y-ML25 T-lymphoma cells; test: Experimental metastasis of L5178Y-ML25 T-lymphoma cells (weights of livers and spleens); format: in vivo, CDF1 mice; details: day 14, in g (unit assumed); for Weight of spleen (Mean ± SD): PBS 0.23 ± 0.03, no lymphoma cell 0.12 ± 0.02; for Weight of liver (Mean ± SD): PBS 4.18 ± 0.30, no lymphoma cell 1.36 ± 0.02
Method: A test compound and L5178Y-ML25 T-lymphoma cells were mixed in PBS. 0.2 ml of the mixture was intravenously injected to each of CDF1 mice, of which groups each consisted of 5 mice. The mixture injected (0.2 ml) contained 4×10^4 L5178Y-ML25 T-lymphoma cells. On the 14th day from the administration, weights of livers and spleens of mice were determined and compared with those of control mice, which were administered with PBS.

colon 26/M3.1 cells = test: Experimental metastasis test of colon 26/M3.1 cells in lung; format: in vivo, C57BL/6 female mice; details: Table 13, 1000 μg/mouse, day 14, PBS control 148 ± 12
Method: A test compound and colon 26/M3.1 cells, which have strong metastatic property, were mixed in PBS. 0.2 ml of the mixture was intravenously injected to each of C57BL/6 female mice, of which groups each consisted of 5 mice. The mixture injected (0.2 ml) contained 4×10^4 colon 26/M3.1 cells. On the 14th day from the administration, number of colonies in lung was determined and compared with that of control mice, which were administered with PBS.
A segment peptide of fibronectin, Gly-Arg-Gly-Asp-Ser (GRGDS), of which tumour metastasis inhibition activities have been known, was used as a comparative sample.

[3] = Table 11, 500 μg/mouse, PBS control 114 ± 28
[4] = Table 4, 500 μg/mouse, PBS control 96 ± 14
[5] = Table 6, 500 μg/mouse, PBS control 103 ± 30
[6] = Table 7, 500 μg/mouse, PBS control 101 ± 28
[7] = Table 5, 1000 μg/mouse, PBS control 118 ± 15

| SMILES | Number of colonies (Mean ± SD) (B16-BL6 melanoma cells; [3]) | Platelet aggregation inhibition rate (%) [1] [%] | Number of colonies (Mean ± SD) (B16-BL6 melanoma cells; [4]) | Number of colonies (Mean ± SD) (B16-BL6 melanoma cells; [5]) | Number of colonies (Mean ± SD) (B16-BL6 melanoma cells; [6]) | Number of colonies (Mean ± SD) (B16-BL6 melanoma cells; [7]) | also measured |
| --- | --- | --- | --- | --- | --- | --- | --- |
| N=C(N)NCCCC(NC(=O)CNC(CC(=O)O)C(=O)O)C(=O)O (stereo not shown) [Compound 35] | 52 ± 14 | – | – | – | – | – | – |
| N=C(N)NCCC[C@@H](NC(=O)CC(=O)N[C@@H](CC(=O)O)C(=O)O)C(=O)O [Compound 2] | – | 53 | 23 ± 9 | 72 ± 15 | 38 ± 16 | – | Number of colonies (Mean ± SD) (B16-BL6 melanoma cells; Table 3, 500 μg/mouse, PBS control 81 ± 23): 39 ± 13; Number of colonies (Mean ± SD) (B16-BL6 melanoma cells; Table 3, 1000 μg/mouse, PBS control 81 ± 23): 3 ± 2 |
| N=C(N)NCCC[C@H](NC(=O)CC(=O)N[C@@H](CC(=O)O)C(=O)O)C(=O)O [Compound 1] | – | 57 | 13 ± 6 | 63 ± 23 | 19 ± 11 | 25 ± 8 | IC50 ([1]; platelet aggregation, PRP, ADP): 2.4 mM; Number of colonies (Mean ± SD) (B16-BL6 melanoma cells; Table 2, 1000 μg/mouse i.v. mixed with cells, PBS control 141 ± 16): 46 ± 10; Weight of spleen (Mean ± SD) ([2]; 100 μg/mouse): 0.18 ± 0.02; Weight of liver (Mean ± SD) ([2]; 100 μg/mouse): 3.09 ± 0.78; Weight of spleen (Mean ± SD) ([2]; 500 μg/mouse): 0.20 ± 0.02; Weight of liver (Mean ± SD) ([2]; 500 μg/mouse): 2.98 ± 0.29; Weight of spleen (Mean ± SD) ([2]; 1000 μg/mouse): 0.14 ± 0.01; Weight of liver (Mean ± SD) ([2]; 1000 μg/mouse): 1.84 ± 0.36; Number of colonies (Mean ± SD) (colon 26/M3.1 cells): 31 ± 26 |
| CNC(=O)C(CCCNC(=N)N)NC(=O)CC(=O)NC(CC(=O)O)C(=O)O (stereo not shown) [Compound 12] | – | – | 58 ± 20 | – | – | 19 ± 6 | – |
| N=C(N)NCCC[C@H](NC(=O)CC(=O)N[C@@H](CC(=O)O)C(=O)N[C@@H](CO)C(=O)O)C(=O)O [Compound 15] | – | 47 | – | 39 ± 17 | 32 ± 8 | – | – |
| CNC(=O)C(CCCNC(=N)N)NC(=O)CC(=O)NC(CC(=O)O)C(=O)NC (stereo not shown) [Compound 14] | – | – | 94 ± 26 | – | – | 69 ± 7 | – |
| CNC(=O)C(CC(=O)O)NC(=O)CC(=O)NC(CCCNC(=N)N)C(=O)O (stereo not shown) [Compound 8] | – | – | 55 ± 12 | – | – | 24 ± 9 | – |
| N=C(N)NCCCC(NC(=O)CC(=O)NC(CC(=O)O)C(=O)O)C(=O)NCC(=O)O (stereo not shown) [Compound 19] | – | – | – | – | – | – | Number of colonies (Mean ± SD) (B16-BL6 melanoma cells; Table 8, 1000 μg/mouse, PBS control 168 ± 28): 32 ± 8; Number of colonies (Mean ± SD) (B16-BL6 melanoma cells; Table 9, 1000 μg/mouse, PBS control 168 ± 28): 32 ± 8 |
| N=C(N)NCCCC(NC(=O)C(=O)NC(CC(=O)O)C(=O)O)C(=O)O (stereo not shown) [Compound 33] | 51 ± 18 | – | – | – | – | – | – |
| N=C(N)NCCCC(NCC(=O)NC(CC(=O)O)C(=O)O)C(=O)O (stereo not shown) [Compound 34] | 51 ± 19 | – | – | – | – | – | – |
